In US10047105B2, “Gyrase inhibitors” (Merck Sharp & Dohme Corp., priority 2009, dated 2018):
Values after ≈ are worked out from the molar mass of the structure shown.

Tests used:
S. aureus ATCC 13709 = assay: MIC, antibacterial potency, S. aureus; assay type: cell-based; conditions: S. aureus
S. pneumoniae ATCC 51916 = assay: MIC, S. pneumoniae; assay type: cell-based; conditions: S. pneumoniae

SMILES	MIC, SA (S. aureus ATCC 13709) [µg/mL]	MIC Spn52 (S. pneumoniae ATCC 51916) [µg/mL]
CCc1[nH]c2nc(Sc3ccc4c(N5CC(N)C5)ncnc4c3)nc(N3CCC(N)C3)c2c1Cl (centres unmarked) [700,597]	16 (≈ 32.3 µM)	16 (≈ 32.3 µM)
CCc1[nH]c2nc(Oc3cccnc3)nc(Oc3cccnc3)c2c1Br.O=C(O)C(F)(F)F [700,598]	1	2
CCc1[nH]c2nc(Nc3cnc4c(c3)nnn4C)nc(OC)c2c1Br.O=C(O)C(F)(F)F [700,599]	≤ 0.5	2
CCOc1nc(Nc2cnc3c(c2)nnn3C)nc2[nH]c(CC)c(Br)c12.O=C(O)C(F)(F)F [700,600]	> 8	> 8
CCc1[nH]c2nc(Sc3cnc4nccnc4c3)nc(N3CC(N(C)C(=O)OC(C)(C)C)C3)c2c1Cl.O=C(O)C(F)(F)F [700,601]	≤ 0.5	2
CCc1[nH]c2nc(Sc3cnc4nccnc4c3)nc(N3CC(CN(C)C)C3)c2c1Cl.O=C(O)C(F)(F)F.O=C(O)C(F)(F)F [700,602]	4	4
CCc1[nH]c2nc(Sc3cnc4nccnc4c3)nc(N3CC(N(C)C)C3)c2c1Cl.O=C(O)C(F)(F)F.O=C(O)C(F)(F)F [700,603]	4	8
CCc1[nH]c2nc(Sc3cnc4nccnc4c3)nc(N3CC(N4CCCC4)C3)c2c1Cl.O=C(O)C(F)(F)F.O=C(O)C(F)(F)F [700,604]	4	8
CCc1[nH]c2nc(Sc3cnc4nccnc4c3)nc(N3CC(N4CCCCC4)C3)c2c1Cl.O=C(O)C(F)(F)F.O=C(O)C(F)(F)F [700,605]	4	8
CCc1[nH]c2nc(Sc3cnc4nccnc4c3)nc(N3CC(N4CCOCC4)C3)c2c1Cl.O=C(O)C(F)(F)F.O=C(O)C(F)(F)F [700,606]	2	4
CCc1[nH]c2nc(Sc3cnc4nccnc4c3)nc(N3CC(C)(CN)C3)c2c1Cl.O=C(O)C(F)(F)F.O=C(O)C(F)(F)F [700,607]	8	16
CCc1[nH]c2nc(Sc3cnc4nccnc4c3)nc(N3CC4C(C3)C4NC(=O)OC(C)(C)C)c2c1Cl.O=C(O)C(F)(F)F.O=C(O)C(F)(F)F (centres unmarked) [700,608]	1	2
CCc1[nH]c2nc(Sc3ccc4nnc(C(=O)NC[C@H](C)O)nc4c3)nc(N3CC(N)C3)c2c1Cl [700,611]	2 (≈ 3.89 µM)	8 (≈ 15.6 µM)
CCc1[nH]c2nc(Cl)nc(Oc3ccc4nccnc4c3)c2c1Cl [700,612]	> 64	> 64
CCc1[nH]c2nc(Oc3ccc4nccnc4c3)nc(Oc3ccc4nccnc4c3)c2c1Cl [700,613]	≤ 0.5	4 (≈ 8.51 µM)
CCc1[nH]c2nc(Oc3cnc4c(cnn4C)c3)nc(Oc3cnc4c(cnn4C)c3)c2c1Cl [700,614]	2 (≈ 4.2 µM)	16 (≈ 33.6 µM)
CCc1[nH]c2nc(Oc3cnc4c(cnn4C)c3)nc(Oc3cccnc3)c2c1Cl [700,615]	≤ 0.5	4 (≈ 9.48 µM)
CCc1[nH]c2nc(Sc3cnc4nccnc4c3)nc(N3CC[C@@H](N)C3)c2c1Cl [700,618]	≤ 0.5	2 (≈ 4.68 µM)
CCc1[nH]c2nc(Sc3ccc4nnc(C(=O)NCCCN5CCN(C)CC5)nc4c3)nc(N3CC[C@@H](N)C3)c2c1Cl [700,619]	32 (≈ 52.4 µM)	32 (≈ 52.4 µM)
CCc1[nH]c2nc(Sc3ccc4c(N5CC(N)C5)cc(C(=O)O)nc4c3)nc(N3CC[C@@H](N)C3)c2c1Cl [700,620]	32 (≈ 59.4 µM)	> 64
CCc1[nH]c2nc(Oc3cccnc3)nc(Oc3cncnc3)c2c1Br.O=C(O)C(F)(F)F [700,621]	4	8
CCc1[nH]c2nc(Sc3cc(=O)[nH]c(=O)[nH]3)nc(N3CC4CNC4C3)c2c1Cl.O=C(O)C(F)(F)F (centres unmarked) [700,627]	4	16

SMILES	MIC, SA (S. aureus ATCC 13709) [µg/mL]	MIC Spn52 (S. pneumoniae ATCC 51916) [µg/mL]
CCc1[nH]c2nc(Sc3cc(=O)n(C)c(=O)[nH]3)nc(N3CC4CNC4C3)c2c1Cl.O=C(O)C(F)(F)F (centres unmarked) [700,628]	2	8
CCc1[nH]c2nc(Sc3cnc4nccnc4c3)nc(N3CC(C)(NC(=O)OC(C)(C)C)C3)c2c1Cl.O=C(O)C(F)(F)F [700,629]	≤ 0.5	2
CCc1[nH]c2nc(Sc3cnc4nccnc4c3)nc(N3CC(C)(N)C3)c2c1Cl.O=C(O)C(F)(F)F.O=C(O)C(F)(F)F [700,630]	4	8
CCc1[nH]c2nc(Oc3cncnc3)nc(Oc3cncc(OC)c3)c2c1Cl.O=C(O)C(F)(F)F [700,648]	≤ 0.5	2
CCc1[nH]c2nc(Oc3cnc4ccoc4c3)nc(Oc3cncc(OC)c3)c2c1Cl.O=C(O)C(F)(F)F [700,649]	≤ 0.5	2
CCc1[nH]c2nc(Oc3cnc4ccoc4c3)nc(Oc3cnc4ccoc4c3)c2c1Cl.O=C(O)C(F)(F)F [700,650]	≤ 0.5	1
CCc1[nH]c2nc(Oc3cccnc3)nc(Oc3cccnc3)c2c1C(F)(F)F.O=C(O)C(F)(F)F [700,654]	> 64	> 64
CCc1[nH]c2nc(Sc3cnc4nccnc4c3)nc(N3CC4CC3CN4)c2c1Cl.O=C(O)C(F)(F)F (centres unmarked) [700,655]	> 64	2
CCc1[nH]c2nc(Sc3cnc4nccnc4c3)nc(N3CCC(C(O)c4cccs4)CC3)c2c1Cl.O=C(O)C(F)(F)F (centres unmarked) [700,656]	≤ 0.5	2
CCc1[nH]c2nc(Sc3cnc4nccnc4c3)nc(N3CC[C@H](O)[C@H]3CO)c2c1Cl [700,657]	8 (≈ 17.5 µM)	2 (≈ 4.37 µM)
CCc1[nH]c2nc(Sc3cnc4nccnc4c3)nc(N3CC4C(C3)C4NC(=N)N)c2c1Cl (centres unmarked) [700,658]	≤ 0.5	8 (≈ 16.6 µM)
CCc1[nH]c2nc(Sc3cnc4cccnc4c3)nc(N3CC[C@H](O)[C@H]3CO)c2c1Cl [700,659]	4 (≈ 8.75 µM)	2 (≈ 4.38 µM)
CCc1[nH]c2nc(Sc3cnc4cccnc4c3)nc(N3CC4CNC4C3)c2c1Cl (centres unmarked) [700,660]	≤ 0.5	1 (≈ 2.28 µM)
CCc1[nH]c2nc(Sc3ccc4c(N5CC(N)C5)cc(C(=O)O)nc4c3)nc(N3CC4C(N)C4C3)c2c1Cl (centres unmarked) [700,661]	> 64	> 64
CCOc1nc(Oc2ccc3c(N)nc(C)nc3c2)nc2[nH]c(CC)c(Cl)c12.O=C(O)C(F)(F)F [700,664]	2	4
CCOc1nc(Oc2cccnc2)nc2[nH]c(CC)c(Cl)c12.O=C(O)C(F)(F)F [700,665]	2	8
CCc1[nH]c2nc(Sc3ccc(C#N)c(F)c3)nc(N3CC[C@@H](N)C3)c2c1Cl.O=C(O)C(F)(F)F [700,666]	2	4
CCc1[nH]c2nc(Sc3cnc4nccnc4c3)nc(N3CC(Oc4cccnc4)C3)c2c1Cl.O=C(O)C(F)(F)F.O=C(O)C(F)(F)F [700,667]	≤ 0.5	1
CCc1[nH]c2nc(Sc3cnc4nccnc4c3)nc(N3CC(Oc4ccc(OC)cc4)C3)c2c1Cl.O=C(O)C(F)(F)F [700,668]	8	> 64
CCc1[nH]c2nc(Sc3cnc4nccnc4c3)nc(N3CC(Oc4ccc(C(F)(F)F)cc4)C3)c2c1Cl.O=C(O)C(F)(F)F [700,669]	> 64	> 64
CCc1[nH]c2nc(Sc3cnc4nccnc4c3)nc(N3CC(C(N)=O)C3)c2c1Cl.O=C(O)C(F)(F)F [700,670]	16	16
